“Also recorded” adds a separate entry of the source.
Tested on: allergen challenged allergic mice
Assay: Allergic pulmonary inflammation model (ovalbumin/alum sensitized mice, intratracheal ovalbumin challenge, BAL fluid analysis)
Assay type: in vivo, Balb/c female mice
Conditions: for total cellular infiltrate (cells recovered in the bronchoalveolar lavage fluid) / neutrophils and monocytes/macrophages at the site of inflammation (BAL fluid) / number of eosinophils recovered in the BAL fluid / IL-5 levels in the BAL fluid / IL-10 levels in the BAL fluid: ovalbumin/alum sensitized mice; for total cellular infiltrate (cells recovered in the bronchoalveolar lavage fluid): intratracheal ovalbumin challenge, compared to buffer-treated mice; for neutrophils and monocytes/macrophages at the site of inflammation (BAL fluid) / number of eosinophils recovered in the BAL fluid / IL-5 levels in the BAL fluid / IL-10 levels in the BAL fluid: ovalbumin challenge; for IL-5 levels in the BAL fluid / IL-10 levels in the BAL fluid: ELISA
Description: This model is used below to evaluate the effect of the compounds of the invention and to carry out comparative tests.
The prevention protocol is designed to determine the ability of treatment to prevent the development of symptoms of allergic pulmonary inflammation in subsequently sensitized mice. The therapeutic protocol is designed to determine the ability of treatment to cure symptoms of allergic pulmonary inflammation in sensitized mice.
In the prevention protocol Balb/c female mice (7-8 weeks of age, 17-20 g in weight) are treated with saline or buffer—0.001% FFA albumin in saline (as positive control) or lipid fractions of mycobacteria (taken form the sample deposited at the National Collection of Type Cultures under deposit number NCTC 11659). Three weeks after treatment all mice are sensitized intraperitoneally with 10 μg ovalbumin (OVA) and Alum (a 100 μl preparation of Alum supplied by Serva-Alu-Gel-S suspension). Sensitization is repeated after twelve days. On day 19, mice are intratracheally challenged with OVA (0.5 μg in 50 μl saline). Intratracheal antigenic challenge is repeated two days later. Twenty-four or 48 hours after the last challenge, the experiment is terminated.
In the therapeutic protocol mice are sensitized with OVA and Alum on day 0 and 12. On day 21, mice are treated as appropriate. Mice are resensitized on days 42 and 54. On days 61 and 63, mice are challenged intratracheally with OVA and the experiment terminated 24 or 48 hours later.
In some experiments, a small number of mice from the positive control group are challenged intratracheally with saline alone to determine the background level of cells infiltrating the lungs of sensitized mice in the absence of an allergic episode (negative control).
A number of end points are routinely assessed. Mice are bled by cardiac puncture and blood collected for serum analysis. The lungs are lavaged three times with 0.3 ml of sterile RPMI containing Penicillin/Streptomycin. The lavage fluid is collected and recovered cells are counted. Fifty or 100 μl of lavage fluid is used for a cytospin, which is stained (Wright-Giemsa stain), fixed in methanol and used for the morphological identification of specific cell populations of interest (eosinophils, neutrophils and monocytes/macrophages). The remaining fluid is spun down and the supernatant stored for cytokine measurement by ELISA. Spleens are pooled per treatment groups, a single cell suspension of splenocytes is obtained and placed in culture with OVA for specific antigenic stimulation and with anti-CD3 for polyclonal T cell stimulation. Supernatants are collected and stored for cytokine measurement by ELISA.

SMILES | total cellular infiltrate (cells recovered in the bronchoalveolar lavage fluid) | neutrophils and monocytes/macrophages at the site of inflammation (BAL fluid) | number of eosinophils recovered in the BAL fluid | IL-5 levels in the BAL fluid | IL-10 levels in the BAL fluid | total cellular infiltrate in the lungs (single dose as low as 1 μg (doses tested 5 μg, 1 μg, 0.1 μg))
CCCCC/C=C/CCCCCCCCC(=O)O [C16:1 10-11 trans] | reduction in the cellular infiltrate | – | – | – | – | –
CCCCC=CCCCCCCCCCC(=O)OCC(COC(=O)CCCCCCCCCC=CCCCC)OC(=O)CCCCCCCCCC=CCCCC (stereo not drawn) [C16:1 11-12] | failed to reduce | – | – | – | – | –
CCCCC/C=C\CCCCCCCCC(=O)O [SRP312f, hexadecenoic acid (10Z)] | – | did not result in neutrophilia or in an increase of monocytes or macrophages | significant reduction | reduced | increased | –
CCCCC/C=C\CCCCCCCCC(=O)OCC(COC(=O)CCCCCCCC/C=C\CCCCC)OC(=O)CCCCCCCC/C=C\CCCCC [SRP312t, tri-ester of 1,2,3-propanetriol and hexadecenoic acid (10Z)] | reduced the total cellular infiltrate; also recorded: greater reduction | did not result in neutrophilia or in an increase of monocytes or macrophages | significant reduction | reduced | increased | significantly reduce

— patent US7569213B2, “Immunotherapeutic agent” (Stanford Rook Limited, priority 2004, dated 2009)
